According to the CATMoS acute toxicity set (Mansouri et al. 2021):

Assay: GHS categories as the set defines them, by LD50: 1 up to 5, 2 up to 50, 3 up to 300, 4 up to 2000, 5 above 2000 mg/kg
Details: rat; in vivo; po
Description: […]The data set underlying the modeling effort for this project was initially compiled by NICEATM and U.S. EPA’s CCTE. Briefly, LD50 data were collected from rat acute oral systemic toxicity tests, including limit tests, ranges/confidence intervals, and discrete LD50 values. The full data set included 21,200 LD50 entries for 15,688 substances. […] Data were reviewed to ensure that LD50 values with obvious errors in the extracted data such as unit conversion errors (e.g., comma and decimal separator misplacements) were either fixed or removed. After this review, 16,209 LD50 values remained. Many of the chemicals represented had multiple LD50 entries, requiring that a single representative value per Chemical Abstracts Service Registry Number (CASRN) identifier be defined to facilitate modeling efforts. Based on ATWG feedback and to define the representative LD50 as a protective value while accounting for the distribution across multiple LD50s, the median of the lowest quartile was computed using only discrete LD50 values (omitting limit test data and range and confidence interval data). A detailed summary of the data compilation is available online on the NICEATM webpage dedicated to the collaborative modeling project (NTP 2020).
[…][…] For categorical designations, limit test and range/confidence interval LD50 data were integrated wherever possible. As such, the number of chemicals with end point values/calls varies across the modeling end points (Table 3) based on whether chemicals had representative LD50 values and/or other data. If a chemical had both, the representative value was used to determine categorical calls rather than limit test data. Some data were useable only for certain end points and categories depending on the thresholds. For example, ranges that spanned multiple hazard categories were considered only for the binary (very toxic/nontoxic) end points and omitted from rendering a determination for hazard category assignment.
[…]The final data set comprising 11,992 chemicals was split into training and evaluation sets […], respectively. This process was performed semirandomly by ordering chemicals based on the five end points (categorical and continuous LD50 values) and partitioning every fourth record into the evaluation set accordingly. This approach was taken to ensure an equivalent distribution of the LD50 values and the different hazard categories between the training and the evaluation sets without supervised sampling of the chemicals based on structures (Figure 1A). The sources of the chemical structures were also kept equivalent between the two sets, with chemical structures obtained from DSSTox, being the highest quality, representing over 75% of each set (Figure 1B).

Row | SMILES | GHS category
1 | O=C(O)c1nc(C(Cl)(Cl)Cl)n(-c2ccc(Cl)cc2Cl)n1 | 5
2 | CCOC(=O)C(C)(C)c1ccccc1 | 5
3 | CCCCCCCCCCCCCCC(C)c1cc(C)cc(C)c1O (stereo not given) | 5
4 | O=C1NC(=O)C(c2ccc(O)cc2)(c2ccc(O)c(Cl)c2)N1 (stereo not given) | 5
5 | CN1C(=O)CCc2c(OCC(O)CN3CCC(Cc4ccccc4)CC3)cccc21 (stereo not given) | 4
6 | COC(=O)CCc1cc(-n2nc3ccccc3n2)c(O)c(C(C)(C)C)c1 | 5
7 | O=C(Cc1cccs1)N[C@@H]1C(=O)N2C(C(=O)O)=C(CO)CS[C@H]12 | 5
8 | CCC1(CO)COCOC1 | 5
9 | Cc1c([N+](=O)[O-])c(C)c([N+](=O)[O-])c(C(C)(C)C)c1[N+](=O)[O-] | 5
10 | CC(C)CCCC(C)C1CCC2C3CCC4CC(OP(=O)(O)O)CCC4(C)C3CCC12C (stereo not given) | 5
11 | CC(C)Cc1ccc2cc(CC(=O)O)ccc2c1 | 4
12 | O=C(O)CCC(=O)OC1N=C(c2ccccc2)c2cc(Cl)ccc2NC1=O (stereo not given) | 5
13 | Cc1cc(C(C)(CC(=O)OCCOC(=O)CC(C)(c2ccc(O)c(C(C)(C)C)c2)c2ccc(O)c(C(C)(C)C)c2)c2ccc(O)c(C(C)(C)C)c2)cc(C(C)(C)C)c1O (stereo not given) | 5
14 | CC(C)OC(=O)[C@@H](C)N(C(=O)c1ccccc1)c1ccc(F)c(Cl)c1 | 5
15 | O=C(O)c1cc2ccccc2c(N=Nc2cc(Cl)ccc2Cl)c1O | 5
16 | CCOC(=O)CCC(C)=O | 5
17 | Nc1cccc2c(S(=O)(=O)O)cccc12 | 5
18 | C=COC(=O)C1=C(C)N[C@@](C)(c2ccc(N3CCN(C(c4ccccc4)c4ccccc4)CC3)cc2)C(C(=O)OC)C1c1cccc([N+](=O)[O-])c1 (stereo not given in full) | 4
19 | CC(C)(CO)CO | 5
20 | FC(F)(Cl)C(Cl)(Cl)Cl | 5
21 | Fc1c(F)c(F)c(Cl)c(F)c1F | 5
22 | CCCCN1CCCC1=O | 4
23 | COC(=O)C(C)(C)C(=O)OC1=C(C(=O)Nc2ccccn2)N(C)S(=O)(=O)c2cc(Cl)sc21 | 2
24 | CCCCCCOC(=O)CCC | 5
25 | CCC(=O)OC/C=C(/C)CCC=C(C)C | 5

Row | SMILES | GHS category
26 | c1ccc(C2CCCCC2)cc1 | 5
27 | CN1C(=O)COc2cc(C(=O)C=Cc3ccc(Cl)cc3)ccc21 | 5
28 | CN(C)C(=O)c1cc(C(=O)N(C)C)c2c(n1)C(=O)C(=O)c1cc(C(=O)N(C)C)[nH]c1-2 | 5
29 | CC(C)(C)C(=O)OCC(=O)c1ccccc1 | 5
30 | O=C(OCCOCCO)c1cc(O)ccc1Nc1cccc(C(F)(F)F)c1 | 4
31 | CNc1ccc(C(=O)c2ccc(Cl)cc2)cc1O | 5
32 | CN(C)CCn1nnnc1SCC1=C(C(=O)O)N2C(=O)[C@@H](NC(=O)Cc3csc(N)n3)[C@H]2SC1 | 5
33 | CCCS(=O)(=O)Nc1ccc(F)c(C(=O)c2cn(C(=O)c3c(Cl)cccc3Cl)c3ncc(Br)cc23)c1F | 5
34 | O=C(O)c1ccc(NC(=O)[C@H](Cc2ccc(O)cc2)NC(=O)c2ccccc2)cc1 | 5
35 | S=P(Oc1ccccc1)(Oc1ccccc1)Oc1ccccc1 | 5
36 | Cc1cc(C2(c3ccc(O)c(C)c3)CCCCC2)ccc1O | 5
37 | COCCOC=C1OC2=C(C(=O)N1c1ccccn1)N(C)S(=O)(=O)c1cc(Cl)sc12 | 2
38 | CC(O)C1=CCC(C(C)(C)O)CC1O (stereo not given) | 5
39 | FC(F)(F)c1cccc(-n2nc(OCCN3CCCCCC3)c3cccnc32)c1 | 4
40 | Cc1ccc2c([nH]c(=O)c3c(=O)cc(C(=O)OCCC(C)C)oc32)c1C | 5
41 | O=COC1CCC2CCCCC2C1 (stereo not given) | 5
42 | CC(C)(Oc1ccc(Cl)cc1)C(=O)NC(=O)NCN1CCOCC1 | 5
43 | O=S(=O)(O)c1cc(-n2nc3ccc4ccccc4c3n2)ccc1C=Cc1ccccc1 | 5
44 | Nc1ccc(N)c(S(=O)(=O)O)c1 | 5
45 | O=c1[nH]sc2cc(Cl)ccc12 | 5
46 | CC(C)CCCC(C)CCCC(C)CCCCC(C)CCCC(C)CCCC(C)C (stereo not given) | 4
47 | CC#Cc1cc(C)nc(Nc2ccccc2)n1 | 5
48 | C=C(C)C(=O)OCCCCCCCCCCCC | 5
49 | OC[C@H]1CO[C@@](Cn2cncn2)(c2cc3ccccc3o2)O1 | 4
50 | CCc1cccc(OP(=O)(Oc2cccc(CC)c2)Oc2cccc(CC)c2)c1 | 5

Row | SMILES | GHS category
51 | CC(C)CCCCCCCCCCO | 5
52 | CCCCCCCCCCCCCCCCCC | 5
53 | CCCCCCCCC(=O)OCC | 5
54 | O=C1NC(=O)c2cccc3cccc1c23 | 5
55 | CC(C)(C)c1ccc(OC(=O)C2CCC(CN=C(N)N)CC2)cc1 (stereo not given) | 2
56 | COCOC1CCCCCCCCCCC1 | 5
57 | C | 5
58 | Nc1cc(C(=O)O)ccc1Cl | 5
59 | CC(C)C1=CC23CCC4C(C)(C(=O)N5CCNCC5)CCCC4(C)C2CC1C1C(=O)OC(=O)C13 (stereo not given) | 5
60 | CCCCCCC(C)C=O (stereo not given) | 5
61 | CC(C)(C)c1cc2c(c(C(C)(C)C)c1)OP(=O)(O)Oc1c(cc(C(C)(C)C)cc1C(C)(C)C)C2 | 5
62 | CC(C)(C)c1cc(S)c(O)c(C(C)(C)C)c1 | 5
63 | CC(C)(C)c1cc(Cn2c(=O)n(Cc3cc(C(C)(C)C)c(O)c(C(C)(C)C)c3)c(=O)n(Cc3cc(C(C)(C)C)c(O)c(C(C)(C)C)c3)c2=O)cc(C(C)(C)C)c1O | 5
64 | CCS(=O)(=O)c1nc2ccccn2c1S(=O)(=O)NC(=O)Nc1nc(OC)cc(OC)n1 | 5
65 | CCOC(=O)c1nn(-c2ccc(OC)cc2)c2c1CCN(c1ccc(N3CCCCC3=O)cc1)C2=O | 5
66 | CNC(=O)Oc1cccc2c1OC1(CCCCC1)O2 | 3
67 | CSC(=O)c1cccc2nnsc12 | 5
68 | COc1ccc(N(CCCC(=O)O)C(=O)c2ccc(Cl)cc2)c(OC)c1 | 4
69 | Cc1cc(=O)[nH]c2cc(OCCCN3CCC(Cc4ccccc4)CC3)ccc12 | 4
70 | Nc1c(Oc2ccccc2)cc(O)c2c1C(=O)c1ccccc1C2=O | 5
71 | O=C(O)c1cc(Nc2ccccc2)c(C(=O)O)cc1Nc1ccccc1 | 5
72 | CC(C)(C)c1cc(Cc2cc(C(C)(C)C)c(O)c(C(C)(C)C)c2)cc(C(C)(C)C)c1O | 5
73 | Clc1ccc(C(c2ccccc2Cl)C(Cl)Cl)cc1 (stereo not given) | 5
74 | CCOC(=O)C(C)(C)Br | 5
75 | C=C(C)C1CCC(C)C(=O)C1 (stereo not given) | 5

Row | SMILES | GHS category
76 | C/C=C/C(=O)OC | 5
77 | CC#CCn1c(Br)nc2c1c(=O)[nH]c(=O)n2C | 4
78 | COc1cc(OC)nc(NC(=O)Oc2ccccc2)n1 | 5
79 | CNc1cc(OC)c(C(=O)N[C@H]2CCN(Cc3ccccc3)[C@H]2C)cc1Cl | 4
80 | CCC(=O)OC(C)(C)C1CC=C(C)CC1 (stereo not given) | 5
81 | CCCN(CCC)c1c([N+](=O)[O-])cc(S(C)(=O)=O)cc1[N+](=O)[O-] | 5
82 | O=C(Nc1ccc(F)cc1F)c1cccnc1Oc1cccc(C(F)(F)F)c1 | 5
83 | CCC(=O)C=Cc1ccc(OC)cc1 | 5
84 | CCCCCCCCCCCCCCCCCOS(=O)(=O)O | 4
85 | Cc1ccc(NC(=O)c2cc(C)[nH]n2)cc1 | 5
86 | COc1ccc(C2(c3ccc(OC)c(C)c3)NC(=O)NC2=O)cc1 (stereo not given) | 5
87 | CN1C(=O)COc2cc(C(=O)c3ccc(Cl)cc3)ccc21 | 5
88 | CCCC(=O)O[C@H]1[C@H](C)O[C@@H](O[C@H]2[C@H](N(C)C)[C@@H](O)[C@H](O[C@H]3[C@@H](CC=O)C[C@@H](C)[C@@H](O)/C=C/C=C/C[C@@H](C)OC(=O)C[C@@H](O)[C@@H]3OC)O[C@@H]2C)C[C@@]1(C)OC(=O)CC | 5
89 | CC(C)=CC/C(C)=C/COC(=O)c1ccccc1 | 5
90 | c1ccc(-c2nc3ccccc3o2)cc1 | 5
91 | COc1ccc2cc([C@H](C)C(=O)OCCN3CCN(CCOC(=O)[C@@H](C)c4ccc5cc(OC)ccc5c4)CC3)ccc2c1 | 5
92 | CCNC(=O)CCSCc1nnnn1-c1ccccc1 | 4
93 | CCC(Oc1ccc(C(C)(C)CC)cc1C(C)(C)CC)C(=O)O (stereo not given) | 5
94 | C[C@]12CC[C@H]3[C@@H](CCC4=CC(=O)C=C[C@@]43C)[C@@H]1CC[C@H]2O | 5
95 | COc1cc2c(cc1OC)C(c1ccccc1Cl)N(c1ccccc1)CC2 (stereo not given) | 4
96 | COC(Cn1cncn1)(OC)c1cc2ccccc2o1 | 4
97 | O=C(c1ccccc1)C1CCCCC1 | 5
98 | CCOC(=O)C(C)CC (stereo not given) | 5
99 | CC12CCC3C(CC=C4C=C(N5CCCC5)CCC43C)C1CCC2=O (stereo not given) | 5
100 | CC(C)C(=O)c1ccc2cc(CC(=O)O)ccc2c1 | 5
